This is an account of results in patent US20230257817A1, “IDENTIFICATION OF GENOME REGIONS ASSOCIATED WITH KIDNEY DISEASE AND TREATMENT” (THE RESEARCH INSTITUTE AT NATIONWIDE CHILDREN'S HOSPITAL, priority 2020, published 2023).

Each structure is given as a SMILES string. “Also recorded” adds a separate entry of the source.

The subject of assay [1] is rats with PAN-induced NS. As to the kind of experiment: PAN-induced nephrotic syndrome rat model, urine protein-to-creatinine ratio. The assay is classed as in vivo. Conditions: for Urine protein to creatinine ratio (UPCR): day 11 after single PAN dose 50 mg/kg IV, MP 15 mg/kg i.p. daily, Pio 10 mg/kg oral gavage daily, n=4 rats per group. On the procedure: (§1) Proteinuria was induced in male Wister rats (body weight[…], age˜45-50 d) by single tail vein injection of Puromycin aminonucleoside (PAN, #P7130, Sigma; St. Louis, Mo.) −50 mg/kg, n=4 on Day 0, while the control group received saline injection (n=4). PAN-induced proteinuria was treated daily with methylprednisolone (15 mg/kg, n=4, Solu-Medrol; Pfizer Inc., New York, N.Y.) via intraperitoneal injection or with pioglitazone (10 mg/kg, Actos; Takeda, Deerfield, Ill.) via oral gavage until day 11 of post PAN-injection. Morning spot urine samples were collected on Day 0 (before PAN injection) and day 11 for urinary protein: creatinine ratio (UPC) analysis. Kidneys were harvested at day 11 and were processed for glomerular isolation.
UPC was measured by Antech Diagnostics (Morrisville, N.C.) using standard techniques that are fully compliant with Good Laboratory practice regulations. See Agrawal et al., Sci Rep 6, 24392 (2016)

Another assay deals with glomerular genes. As to the kind of experiment: RNA sequencing of glomeruli isolated from PAN-NS rats (glomerular transcriptome). It is filed as in vivo, rat. On the procedure:
as §1
Glomeruli were isolated using sieving method where kidney cortex was pared using curved scissors into the petri lid with cold PBS, minced well, drained and washed onto pre-moistened No. 80 sieve. Using squeeze bottle, minced kidneys on No. 80 sieve were washed thoroughly and transferred to No. 140 sieve. No. 140 and 200 are stacked together to catch smaller material. Kidney material was then ground through No. 140 sieve with very gentle pressure using bottom of cold round 250 ml beaker. The ground kidney was washed back and forth well over sieve No. 140 onto No. 200. This catch material is the glomeruli. The glomeruli were washed with cold PBS to get rid of any contaminants and the final washed material was collected into labeled 50 ml conical tube. The tube was spun at ˜1500 rpm for 3 min Glomeruli precipitate was then suspended in RLT buffer (Qiagen, Germantown, Md.) containing β-mercaptoethanol (#M6250 Sigma).
Total RNA from the isolated glomeruli was isolated using the RNeasy mini Kit (Qiagen) according to the manufacturer's instructions. The purity and yield of RNA was determined by measuring the absorbance at 230, 260 and 280 nm. Briefly, 1 ug of RNA was subjected to DNase (Ambion, Thermo Fisher Scientific) digestion at 37° C. for 30 min followed by DNase inactivation with 5 mM EDTA at 75° C. for 10 min.
RNA quality was assessed using the Agilent 2100 Bioanalyzer and RNA Nano Chip Kit (Agilent Technologies, CA) to ensure that the RNA Integrity Number (RIN) was ≥7. RNA-seq libraries were then generated using TruSeq Standard total RNA with Ribo-Zero Globin Complete kit (Illumina, CA). Briefly, ribosomal RNA (rRNA) was removed from 350 ng of total RNA with biotinylated, target-specific oligos combined with Ribo-Zero rRNA removal beads from the Human/Mouse/Rat Globin kit. To generate directional signals in RNA seq data, libraries were constructed from first strand cDNA using ScriptSeq™ v2 RNA-Seq library preparation kit (Epicentre Biotechnologies, WI). Briefly, 50 ng of rRNA-depleted RNA was fragmented and reverse transcribed using random primers containing a 5′ tagging sequence, followed by 3′ end tagging with a terminal-tagging oligo to yield di-tagged, single-stranded cDNA. Following purification using a magnetic bead-based approach, the di-tagged cDNA was amplified by limit-cycle PCR using primer pairs that anneal to tagging sequences and add adaptor sequences required for sequencing cluster generation. Amplified RNA-seq libraries were purified using AMPure XP System (Beckman Coulter). The quality of libraries was determined via Agilent 2200 TapeStation using High Sensitivity D1000 tape, and quantified using Kappa SYBR®Fast qPCR kit (KAPA Biosystems, Inc, MA). Approximately, 90-125 million paired-end 150 bp reads were generated per sample using the Illumina HiSeq4000 platform. Raw data were converted to FASTQ using Illumina's bc12fastq application. Sequencing adapters matching at least 6 bases were then removed from the reads, as well as low-quality bases (<10) using v1.10 of cutadapt. […]

In assay [2] the test system is human podocyte cell line (MS13). Nature of the assay: Real-time PCR of 17 genes-of-interest in PAN-exposed human podocyte cell line. The assay is classed as cell-based. Particulars: PAN 2.5 and 5 μg/ml, 24 h and 48 h. On the procedure: (§2) The conditionally immortalized human podocyte cell line (MS13) and human primary mesangial cells were cultured as previously described. Sharma et al., J Am Soc Nephrol 28, 2618-2630 (2017). 3×10^4 undifferentiated podocytes were plated on a 6-well plate and were incubated at 37° C. for 12-14 days prior to the start of experiment whereas 1×10^5 mesangial cells were plated on a 6-well plate a day prior to start of experiment. Further, podocytes and mesangial cells were serum starved 0/N with 1% FCS containing RPMI media, before the experiment. The following day, podocytes were exposed to 2.5 and 5 μg/ml of PAN for 24 and 48 hrs whereas in case of mesangial cells, 5 μg/ml of PAN (Sigma; St. Louis, Mo.) was added for 24 and 48 hrs. Cells were lysed in 400 μl of RNA lysis buffer provided by Ambion (#AM1560).
(§3) Total RNA from the cultured podocytes and mesangial cells was isolated using the miRVANA miRNA isolation kit (Ambion, ThermoScientific) according to the manufacturer's instructions. The RNA was eluted in 40 μl of nuclease free water. The purity and yield of RNA was determined by measuring the absorbance at 230, 260 and 280 nm. Briefly, 1 μg of RNA was subjected to DNase (Ambion, Thermo Fisher Scientific) digestion at 37° C. for 30 min followed by DNase inactivation with 5 mM EDTA at 75° C. for 10 min.
(§4) […] of total isolated RNA was reverse transcribed to cDNA by iScript cDNA synthesis kit according to manufacturer's instructions (#1708890. Bio-Rad). The resulting cDNA was diluted to 1:5 with nuclease free water. Diluted cDNA was finally used for relative mRNA quantitation of 17 targets-of-interest using SYBER green based Bio-Rad CFX96 Real-Time PCR machine (Bio-Rad Labs, Hercules, Calif.). Both RPL19 and PPIA were used as reference genes.
On the technique in general: In qPCR the cycle at which signal appears reflects the starting amount.

Assay [3] concerns human primary mesangial cells. Nature of the assay: Real-time PCR of 17 genes-of-interest in PAN-exposed human primary mesangial cells. The assay is classed as cell-based. Particulars: PAN 5 μg/ml, 24 h and 48 h. On the procedure:
as §2, §3, §4

In assay [4] the test system is rats with PAN-induced NS. Particulars: earlier study, Agrawal et al., Sci Rep 6, 24392 (2016); cited from earlier work.
Setting [5] is: PAN-NS glomeruli, day 11, FDR<0.05, of 1,872 DEGs.
Where [6] appears, read: overlap analysis, common to both treatments.

With `CN(C)c1ncnc2c1ncn2[C@@H]1O[C@H](CO)[C@@H](N)[C@H]1O` [PAN, Puromycin aminonucleoside], in the assay on rats with PAN-induced NS [1], the “Urine protein to creatinine ratio (UPCR)” value worked out at 57.2 ± 41.6 mg/mg. Besides, in the assay on glomerular genes (setting [5]), the “number of glomerular genes significantly downregulated compared to healthy controls” value is 858 and the “number of glomerular genes significantly upregulated compared to healthy controls” value is 1,014. In assay [2], the “CPT1B, PDK4, ANGPTL4, TAGLN and CDKN1A mRNA expression” value is given as “significant increase in expression”; the “SERPINE1, MMP14, CCL2, LIF, BIRC5 mRNA expression” value is given as “did not follow the expected pattern”. Moreover, the “LGALS3 mRNA expression” value in assay [2] (P=0.0003 vs. controls) is “induction of expression; also recorded: exclusively enhanced”. In assay [3], the “CPT1B, PDK4, ANGPTL4, TAGLN and CDKN1A mRNA expression” value was “significant increase in expression”; the “SERPINE1, MMP14, CCL2, LIF, BIRC5 mRNA expression” value was “did not follow the expected pattern”. Also, the “MMP2 mRNA expression” value in assay [3] (P=0.007 vs. controls) is on record as “induced; also recorded: markedly upregulated”. The “ACTA2 mRNA expression” value in assay [3] (P=0.045 vs. controls) is listed as “induced; also recorded: markedly upregulated”.

Consider `CCc1ccc(CCOc2ccc(CC3SC(=O)NC3=O)cc2)nc1` (stereo not shown) [Pio, pioglitazone], for which the “reduction of proteinuria (UPCR) vs PAN” value in the assay on rats with PAN-induced NS [1] (day 11, PAN+MP or PAN+Pio vs PAN) was found to be 94%. Also, the “Urine protein to creatinine ratio (UPCR)” value with rats with PAN-induced NS [1] amounted to 3.45 ± 0.82 mg/mg. For the same compound, in the assay on glomerular genes (42 endothelial genes), the “effect on transcriptional profiles of endothelial cell-specific genes” value is “neither MP nor Pio treatment had notable effects”. In the assay on glomerular genes (66 podocyte and 43 mesangial genes, PCA plots), the “PAN-induced gene expression alterations in podocyte- and mesangial cell-specific gene clusters” value was “substantially reversed”. Moreover, in the assay with glomerular genes (FDR<0.05 vs PAN), the “number of the 858 glomerular genes downregulated in PAN-NS significantly ameliorated” value is reported as 144, the “number of the 1,014 glomerular genes upregulated in PAN-NS significantly ameliorated” value amounted to 346, the “share of the 858 glomerular genes downregulated in PAN-NS significantly ameliorated” value stood at 17% and the “share of the 1,014 glomerular genes upregulated in PAN-NS significantly ameliorated” value was found to be 34%. Further, the “PAN-induced dysregulation of glomerular gene sets associated with extracellular matrix and cyclins (GSEA)” value with glomerular genes (GSEA, FDR<0.05) is on record as “significantly ameliorated”. In the assay with glomerular genes (setting [6]), the “number of DEGs significantly induced by PAN but ameliorated by both MP and Pio” value was determined as 319; the “number of DEGs significantly suppressed by PAN but ameliorated by both MP and Pio” value worked out at 126. In the assay on rats with PAN-induced NS [4], the “proteinuria in PAN-induced rat model of NS, previously reported” value is recorded as “significantly reduced proteinuria; also recorded: significant proteinuria reduction”.
